According to patent US11957701B2, “Therapy and new therapeutic agent for blood cancer” (Delta-Fly Pharma, Inc., priority 2020, dated 2024):
Where a name gives a salt, the structure may show the parent alone. Read-outs that look alike come from different tables or passages of the source.

System: MV4-11
Assay: Combined use under low protein content, MTT assay after 48 hours
Type: cell-based, human
Settings: MV4-11, low protein content

Row | IC50 (read-out: IC50 value of venetoclax alone) | IC50 (Homo sapiens, read-out: IC50 value of DFP-10917 alone) | Compound
1 | 0.0968 nM |  | venetoclax
2 |  | 1530 nM | N#C[C@H]1[C@H](O)[C@@H](CO)O[C@H]1n1ccc(N)nc1=O [DFP-10917, 4-amino-1-(2-cyano-2-deoxy-β-D-arabinofuranosyl)-2(1H)-pyrimidinone monohydrochloride]
